One block for each compound: values may come before it.
Assays:
Type in all cases: cell-based
TRPA1 [1] = molecular target: T1, TRPA1 (Rattus norvegicus, UniProt Q6RI86); assay: patch clamp of native TRPA1 in RIN14B cells, block of DHA current at […]
TRPA1 [2] = molecular target: TRPA1 (Mus musculus, UniProt Q8BLA8); assay: whole-cell patch clamp of native TRPA1 in STC-1 cells (-60 mV)
Excerpt: whole-cell patch clamp of native TRPA1 in STC-1 cells (-60 mV) on TRPA1 | Concentration-response curve for AITC evoked currents in STC-1 cells

TRPA1 [3] = molecular target: T1, TRPA1; assay: whole-cell patch clamp in transfected HEK293 cells (-60 mV), with NAC
TRPA1 [4] = molecular target: T1, TRPA1; assay: whole-cell patch clamp in transfected HEK293 cells, […] fatty acid

T1 sequence (Q6RI86 whole entry): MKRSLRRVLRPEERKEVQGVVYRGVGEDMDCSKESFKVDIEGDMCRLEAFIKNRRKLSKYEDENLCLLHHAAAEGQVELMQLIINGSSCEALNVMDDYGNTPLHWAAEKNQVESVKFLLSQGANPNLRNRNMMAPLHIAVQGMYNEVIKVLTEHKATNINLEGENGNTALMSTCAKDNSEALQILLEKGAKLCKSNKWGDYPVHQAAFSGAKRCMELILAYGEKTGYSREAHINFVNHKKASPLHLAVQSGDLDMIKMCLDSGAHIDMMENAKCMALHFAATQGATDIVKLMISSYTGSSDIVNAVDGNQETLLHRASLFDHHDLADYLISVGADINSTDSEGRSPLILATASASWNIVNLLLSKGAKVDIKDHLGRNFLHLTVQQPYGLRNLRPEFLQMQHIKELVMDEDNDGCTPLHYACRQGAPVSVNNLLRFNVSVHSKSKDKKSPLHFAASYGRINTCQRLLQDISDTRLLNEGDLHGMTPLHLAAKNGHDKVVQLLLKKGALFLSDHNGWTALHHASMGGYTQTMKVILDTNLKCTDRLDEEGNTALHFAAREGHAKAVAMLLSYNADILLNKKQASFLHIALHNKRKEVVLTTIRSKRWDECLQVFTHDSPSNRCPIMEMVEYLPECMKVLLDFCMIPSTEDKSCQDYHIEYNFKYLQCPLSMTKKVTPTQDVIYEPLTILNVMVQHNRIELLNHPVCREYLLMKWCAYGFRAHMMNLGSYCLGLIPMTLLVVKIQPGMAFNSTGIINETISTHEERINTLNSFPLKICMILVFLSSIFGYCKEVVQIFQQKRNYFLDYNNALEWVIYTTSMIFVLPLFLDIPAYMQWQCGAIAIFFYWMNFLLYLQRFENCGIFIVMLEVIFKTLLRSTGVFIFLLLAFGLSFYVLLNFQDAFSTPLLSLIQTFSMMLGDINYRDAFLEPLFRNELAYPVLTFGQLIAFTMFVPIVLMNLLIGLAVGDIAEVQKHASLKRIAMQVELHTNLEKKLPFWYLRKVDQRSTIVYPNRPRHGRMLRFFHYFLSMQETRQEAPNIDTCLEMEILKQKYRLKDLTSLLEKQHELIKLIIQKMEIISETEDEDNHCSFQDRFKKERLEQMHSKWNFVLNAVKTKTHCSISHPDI
TRPA1 (Mus musculus, UniProt Q8BLA8), sequence (Q8BLA8 whole entry): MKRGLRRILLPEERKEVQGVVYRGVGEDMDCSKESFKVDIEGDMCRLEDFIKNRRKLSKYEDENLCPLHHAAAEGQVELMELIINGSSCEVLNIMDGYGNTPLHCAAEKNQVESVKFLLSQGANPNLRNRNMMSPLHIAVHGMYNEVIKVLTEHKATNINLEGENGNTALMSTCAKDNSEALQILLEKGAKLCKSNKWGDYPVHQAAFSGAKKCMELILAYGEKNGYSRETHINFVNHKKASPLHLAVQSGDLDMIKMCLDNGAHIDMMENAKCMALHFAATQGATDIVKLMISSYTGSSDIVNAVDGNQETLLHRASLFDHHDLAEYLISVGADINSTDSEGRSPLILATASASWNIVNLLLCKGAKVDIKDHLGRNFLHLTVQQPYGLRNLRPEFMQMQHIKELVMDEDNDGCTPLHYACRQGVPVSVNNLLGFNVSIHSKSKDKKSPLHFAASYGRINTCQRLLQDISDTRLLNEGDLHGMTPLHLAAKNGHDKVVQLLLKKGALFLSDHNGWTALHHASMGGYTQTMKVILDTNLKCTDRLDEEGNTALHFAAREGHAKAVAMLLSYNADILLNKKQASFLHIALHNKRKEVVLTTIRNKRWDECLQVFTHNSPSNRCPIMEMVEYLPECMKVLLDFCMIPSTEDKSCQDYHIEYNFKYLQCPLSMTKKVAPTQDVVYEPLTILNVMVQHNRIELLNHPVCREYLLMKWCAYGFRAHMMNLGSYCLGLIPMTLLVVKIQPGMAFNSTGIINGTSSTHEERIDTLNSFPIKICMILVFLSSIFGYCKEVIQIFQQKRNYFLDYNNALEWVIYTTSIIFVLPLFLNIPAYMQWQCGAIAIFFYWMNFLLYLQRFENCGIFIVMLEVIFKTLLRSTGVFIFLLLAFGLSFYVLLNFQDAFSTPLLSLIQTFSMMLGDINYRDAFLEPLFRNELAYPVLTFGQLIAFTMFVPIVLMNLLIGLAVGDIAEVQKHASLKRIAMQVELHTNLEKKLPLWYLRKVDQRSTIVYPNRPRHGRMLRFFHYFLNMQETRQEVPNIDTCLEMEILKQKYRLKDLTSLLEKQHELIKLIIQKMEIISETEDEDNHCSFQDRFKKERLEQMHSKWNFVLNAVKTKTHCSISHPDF

Compound: CC(C)c1ccc(NC(=O)Cn2cnc3c2c(=O)n(C)c(=O)n3C)cc1 [HC030031]
- patch clamp of native TRPA1 in RIN14B cells, block of DHA current at 50 μM (TRPA1 [1]): outwardly-rectified conductance in voltage-clamped STC-1 and RIN14B cells, that is inhibited by the TRPA1 antagonist, HC030031

Compound: C=CCN=C=S [AITC, allyl isothiocyanate]
- EC50 (TRPA1 [2]): 29 µM

- EC50 (TRPA1 [3]): 41 µM
Compound: CC/C=C\C/C=C\C/C=C\C/C=C\C/C=C\C/C=C\CCC(=O)O [DHA, docosahexaenoic acid]

Compound: CCCCC/C=C\C/C=C\C/C=C\C/C=C\CCCC(=O)O [AA, arachidonic acid]
- whole-cell patch clamp in transfected HEK293 cells, 100 μM fatty acid (TRPA1 [4]): Thus, AA, EPA and DHA possess approximate equivalent efficacy.

Reference: PMC3378573, “TRPA1 Is a Polyunsaturated Fatty Acid Sensor in Mammals” (PLoS ONE, 2012)
